Test results taken from US9080197B2, “Equol level regulator” (priority 2005, dated 2015).

system: feces of an equol producer (microorganisms having conversion ability to equol); experiment: Effect of carbohydrates upon equol production in anaerobic culture of feces of an equol producer with daidzein; type: cell-based; settings: 100 μM of daidzein added, carbohydrate 1%
Description: The equol concentration regulating activity of a carbohydrate can be checked by taking feces from a human having ability to produce equol (equol producer), adding daidzein serving as a substrate for equol and a target carbohydrate to the feces thus taken, culturing the feces, determining the concentration of equol in the culture medium and fitting the determined equol concentration to the following equation in comparison with the concentration of equol in a culture medium containing no carbohydrate. Equal concentration regulating activity (%)=(equol concentration of a culture medium containing a target carbohydrate)/(equol concentration of a culture medium containing no carbohydrate)×100
Fresh feces of an equol producer were suspended in a dilute solution (10-fold by volume) containing 0.00255% of KH2PO4, 0.00255% of K2HPO4, 0.006% of NaCl, […] of (NH4)2SO4, 0.000255% of CaCl2, 0.000255% of MgSO4, 0.1% of a 0.1% resazurin solution, 2.2% of an 8% Na2CO3 solution and 0.05% of L-cysteine hydrochloride by use of glass beads (φ 3 mm) in anaerobic conditions and solid matter was removed by use of sterilized gauze. The solution was centrifuged at 8,000 rpm for 10 minutes. Precipitation was suspended in a dilute solution in the same amount thereof. The solution was stored in a freezer at −30° C. as it was.
The feces dilution solution was thawed and centrifuged again. Precipitation was resuspended in PY medium (100-fold by volume) containing 0.5% of peptone, 0.5% of trypticase peptone, 1% of yeast extract, 0.00005% of hemin, 0.0001% of vitamin K1, 0.05% of L-cysteine hydrochloride, 0.0006% of KH2PO4, 0.0006% of K2HPO4, 0.0012% of NaCl, 0.0006% of (NH4)2SO4, 0.00006% of CaCl2 and 0.00006% of MgSO4. At this time, adonitol, arabinose, cellobiose, erythritol, fructo-oligosaccharide, fructose, galactose, glucose, glycogen, inositol, […], lactitol, lactose, lactulose, maltose, mannitol, mannose, melezitose, melibiose, raffinose, rhamnose, ribose, sorbitol, sorbose, sucrose, trehalose, xylose, or galacto-oligosaccharide was added so as to obtain a final concentration of 1%. Simultaneously, a series of sample containing no carbohydrate was prepared. To the series of samples, daidzein was added so as to obtain a final concentration of 100 μM. Culture was performed in completely anaerobic conditions at 37° C. for 16 hours. Note that culture was performed independently in four series. From the culture solution obtained, daidzein and equol were extracted and subjected to HPLC analysis. Note that inositol used herein is myo-inositol manufactured by SIGMA and glycogen was one derived from oyster and manufactured by SIGMA. Trehalose is D(+) trehalose (α,α form) manufactured by SIGMA and galacto-oligosaccharide is TOS-S, which is a mixture of 4′galactosyl-lactose and 6′galactosyl-lactose, and manufactured by Yakult Pharmaceutical Industry Co., Ltd. Fructo-oligosaccharide is a mixture of 1-kestose, nystose and 1-fructosyl-D-nystose manufactured by Wako Pure Chemical Industries, Ltd.
Daidzein and equol were extracted by the following manner. To 500 μL of a culture solution, 250 μL of diethyl ether was added and sufficiently stirred. The solution mixture was centrifuged at 2,000 rpm for 10 minutes to obtain a diethyl ether layer. The remaining aqueous layer was subjected to diethyl ether extraction performed in the same manner. The ether layers obtained in the two extraction operations were combined, concentrated and dried under spray of nitrogen gas flow at 40° C. The dried product was dissolved in 250 μL of 80% methanol and filtrated through a filter to obtain a sample to be subjected to measurement.
Furthermore, HPLC was performed in the following conditions:
Daidzein and equol standard products were poured in the aforementioned conditions to form calibration curves, respectively. In this manner, daidzein and equol concentrations of the samples were determined. […]

With `OC[C@H]1O[C@@H](O[C@H]2[C@H](O)[C@@H](O)C(O)O[C@@H]2CO)[C@H](O)[C@@H](O)[C@H]1O` (stereo partly drawn) [Lactose, lactose] the “daidzein added to the medium remaining” value was “mostly remained”.
For `OC[C@H]1O[C@H](OC[C@H]2O[C@H](O[C@]3(CO)O[C@H](CO)[C@@H](O)[C@@H]3O)[C@H](O)[C@@H](O)[C@@H]2O)[C@H](O)[C@@H](O)[C@H]1O` [Raffinose, raffinose], the “daidzein added to the medium remaining” value was “mostly remained”.
For `OC[C@H]1O[C@@](CO)(O[C@H]2O[C@H](CO)[C@@H](O)[C@H](O)[C@H]2O)[C@@H](O)[C@@H]1O` [Sucrose, sucrose], the “daidzein added to the medium remaining” value was “mostly remained”.
With Inulin [reference compound] the “daidzein added to the medium remaining” value was “mostly remained”.

same assay, conditions: Homo sapiens, read-out: daidzein-to-equol conversion rate

`O=C[C@H](O)[C@@H](O)[C@@H](O)[C@H](O)CO` [Galactose, galactose] and `O=C(CO)[C@H](O)[C@@H](O)[C@H](O)CO` [Sorbose, sorbose] cannot be ordered by activity at 1 %: at least 200% for the first, at least 200% for the second.

same assay, conditions: Homo sapiens; relative to medium containing no carbohydrate (=100%); carbohydrate 1%, daidzein 100 μM, 16 hours; read-out: Equol concentration regulating activity

Point of comparison: `OC[C@@H](O)[C@@H](O)[C@@H](O)CO` [Adonitol, adonitol], activity at 1 % 260%. Against it:
- OC[C@H]1O[C@@H](O[C@@H]2[C@@H](CO)OC(O)(CO)[C@H]2O)[C@H](O)[C@@H](O)[C@H]1O (mixture of isomers) [Lactulose, lactulose] — lower, 8.1%
- O=C[C@@H](O)[C@H](O)[C@H](O)CO [Arabinose, arabinose] — higher, 391%
- O=C[C@H](O)[C@@H](O)[C@H](O[C@@H]1O[C@H](CO)[C@@H](O)[C@H](O)[C@H]1O)[C@H](O)CO [Cellobiose, cellobiose] — lower, 161%
- OC[C@@H](O)[C@@H](O)CO [Erythritol, erythritol] — lower, 214%
- O=C(CO)[C@@H](O)[C@H](O)[C@H](O)CO [Fructose, fructose] — lower, 51.5%
- O=C[C@H](O)[C@@H](O)[C@@H](O)[C@H](O)CO [Galactose, galactose] — lower, 240%
- OC[C@H]1O[C@@H](O[C@H]2[C@H](O)[C@@H](O)C(O)O[C@@H]2CO)[C@H](O)[C@@H](O)[C@H]1O (stereo partly drawn) [Lactose, lactose] — lower, 0%
- OC[C@H]1O[C@H](OC[C@H]2O[C@H](O[C@]3(CO)O[C@H](CO)[C@@H](O)[C@@H]3O)[C@H](O)[C@@H](O)[C@@H]2O)[C@H](O)[C@@H](O)[C@H]1O [Raffinose, raffinose] — lower, 0%
- O=C(CO)[C@H](O)[C@@H](O)[C@H](O)CO [Sorbose, sorbose] — higher, 468%
- OC[C@H]1O[C@@](CO)(O[C@H]2O[C@H](CO)[C@@H](O)[C@H](O)[C@H]2O)[C@@H](O)[C@@H]1O [Sucrose, sucrose] — lower, 0%

same assay, conditions: Homo sapiens; sample containing no carbohydrate taken as 100%; carbohydrate 1%; read-out: daidzein-to-equol conversion rate

`OC[C@H]1O[C@@H](O[C@@H]2[C@@H](CO)OC(O)(CO)[C@H]2O)[C@H](O)[C@@H](O)[C@H]1O` (mixture of isomers) [Lactulose, lactulose] and `OC[C@H]1O[C@@](CO)(O[C@H]2O[C@H](CO)[C@@H](O)[C@H](O)[C@H]2O)[C@@H](O)[C@@H]1O` [Sucrose, sucrose] cannot be ordered by activity at 1 %: at most 50% for the first, at most 50% for the second.

`OC[C@@H](O)[C@@H](O)[C@@H](O)CO` [Adonitol, adonitol] and `OC[C@@H](O)[C@@H](O)CO` [Erythritol, erythritol] cannot be ordered by activity at 1 %: at least 200% for the first, at least 200% for the second.

Going from `O=C[C@@H](O)[C@H](O)[C@H](O)CO` [Arabinose, arabinose] to `OC[C@H]1O[C@@H](O[C@H]2[C@H](O)[C@@H](O)C(O)O[C@@H]2CO)[C@H](O)[C@@H](O)[C@H]1O` (stereo partly drawn) [Lactose, lactose], the activity at 1 % falls from at least 200% to at most 50%.

In the case of `OC[C@H]1O[C@H](OC[C@H]2O[C@H](O[C@]3(CO)O[C@H](CO)[C@@H](O)[C@@H]3O)[C@H](O)[C@@H](O)[C@@H]2O)[C@H](O)[C@@H](O)[C@H]1O` [Raffinose, raffinose], the activity at 1 % is reported as at most 50%.

same assay, conditions: carbohydrate 1%

For Inulin [reference compound], the “effect on daidzein-to-equol conversion rate in this test system” value was “significantly decreases”.

same assay, conditions: carbohydrate 1%, daidzein 100 μM, 16 hours

With `OC[C@H]1O[C@@H](O[C@H]2[C@H](O)[C@@H](O)C(O)O[C@@H]2CO)[C@H](O)[C@@H](O)[C@H]1O` (stereo partly drawn) [Lactose, lactose] the equol production was “not observed”.
For `OC[C@H]1O[C@H](OC[C@H]2O[C@H](O[C@]3(CO)O[C@H](CO)[C@@H](O)[C@@H]3O)[C@H](O)[C@@H](O)[C@@H]2O)[C@H](O)[C@@H](O)[C@H]1O` [Raffinose, raffinose], the equol production was “not observed”.
With `OC[C@H]1O[C@@](CO)(O[C@H]2O[C@H](CO)[C@@H](O)[C@H](O)[C@H]2O)[C@@H](O)[C@@H]1O` [Sucrose, sucrose] the equol production was “not observed”.
For Inulin [reference compound], the equol production was “not observed”.

same assay, conditions: carbohydrate 1%, daidzein 100 μM, anaerobic, 37° C., 16 hours; no carbohydrate 18.1 μM

Point of comparison: `OC[C@H]1O[C@H](OC[C@H]2O[C@H](O[C@]3(CO)O[C@H](CO)[C@@H](O)[C@@H]3O)[C@H](O)[C@@H](O)[C@@H]2O)[C@H](O)[C@@H](O)[C@H]1O` [Raffinose, raffinose], “Equol concentration in medium” value 0.0 µM. Against it:
- OC[C@H]1O[C@@H](O[C@@H]2[C@@H](CO)OC(O)(CO)[C@H]2O)[C@H](O)[C@@H](O)[C@H]1O (mixture of isomers) [Lactulose, lactulose] — higher, 1.5 µM
- OC[C@@H](O)[C@@H](O)[C@@H](O)CO [Adonitol, adonitol] — higher, 47.0 µM
- O=C[C@@H](O)[C@H](O)[C@H](O)CO [Arabinose, arabinose] — higher, 70.6 µM
- O=C[C@H](O)[C@@H](O)[C@H](O[C@@H]1O[C@H](CO)[C@@H](O)[C@H](O)[C@H]1O)[C@H](O)CO [Cellobiose, cellobiose] — higher, 29.0 µM
- OC[C@@H](O)[C@@H](O)CO [Erythritol, erythritol] — higher, 38.7 µM
- O=C(CO)[C@@H](O)[C@H](O)[C@H](O)CO [Fructose, fructose] — higher, 9.3 µM
- O=C[C@H](O)[C@@H](O)[C@@H](O)[C@H](O)CO [Galactose, galactose] — higher, 65.0 µM
- OC[C@H]1O[C@@H](O[C@H]2[C@H](O)[C@@H](O)C(O)O[C@@H]2CO)[C@H](O)[C@@H](O)[C@H]1O (stereo partly drawn) [Lactose, lactose] — the same, 0.0 µM
- O=C(CO)[C@H](O)[C@@H](O)[C@H](O)CO [Sorbose, sorbose] — higher, 84.5 µM
- OC[C@H]1O[C@@](CO)(O[C@H]2O[C@H](CO)[C@@H](O)[C@H](O)[C@H]2O)[C@@H](O)[C@@H]1O [Sucrose, sucrose] — the same, 0.0 µM
- Inulin [reference compound] — the same, 0.0 µM

same assay, conditions: relative to medium containing no carbohydrate (=100%); carbohydrate 1%, daidzein 100 μM, 16 hours

In the case of Inulin [reference compound], the “Equol concentration regulating activity” value is reported as 0.0%.

system: microorganism having conversion ability to equol; experiment: Sub-culture of feces of an equol producer in PY medium containing a carbohydrate (selective medium), daidzein-to-equol conversion; type: cell-based; settings: PY medium with 1% carbohydrate, daidzein 100 μM, 37° C., 16 hours per passage
Procedure: A feces suspension solution stored in the process according to Experimental Example 1 was added to 500 μL of PY mediums (to which adonitol or sorbose was previously added so as to obtain a final concentration of 1%; and distilled water was added in place of adonitol or sorbose for preparing a control sample) so as to obtain a content of 1/10 and daidzein was added so as to obtain a final concentration of 100 μM. Each medium was cultured at 37° C. for 16 hours in completely anaerobic conditions. After the culturing, an aliquot of 50 μL was taken from the culture solution and transferred to a fresh PY medium (500 μL). The remaining culture solution was subjected to daidzein and equol extraction. Thereafter, the same operation was repeatedly performed. In this manner, sub-culture was performed. At this time, a bacterial solution was appropriately subjected to gram staining and microscopically observed. The extraction of daidzein and equol, and quantification by HPLC were performed in accordance with the method described in Experimental Example 1. Each obtained daidzein and equol concentration was fitted into the following formula to obtain a daidzein-to-equol conversion rate. Note that culture was performed independently in three series to obtain an average conversion rate and standard deviation thereof. […]

Point of comparison: `O=C(CO)[C@H](O)[C@@H](O)[C@H](O)CO` [Sorbose, sorbose], “generation to which conversion ability to equol can be maintained in sub-culture” value 11th. Against it:
- OC[C@@H](O)[C@@H](O)[C@@H](O)CO [Adonitol, adonitol] — lower, 8th

system: not given; experiment: not given; settings: rat, Non-Patent Document 5; cited from earlier work

In the case of Inulin [reference compound], the “equol concentration in the serum” value is given as “reduces”.
